Series [1] relates to statin-induced abnormal liver function. Kind of series: Treatment of statin-induced abnormal liver function using HMB. It is filed as in vivo, human. The settings on record: within 3 months of beginning HMB treatment. Here is the method: Elevated liver function tests (LFTs) are common in statin users. The presence of elevated transaminases, commonly the transaminases alanine transaminase (ALT or SGPT) and aspartate transaminase (AST or SGOT), are indicators of liver damage. Terms for this condition include transaminasemia and transaminitis, Normal ranges for both ALT and AST are 8-40 U/L with mild transaminesemia noted to the upward numerical limit of 250 U/L. Here, HMB is administered to normalize abnormal liver function tests and reverse transaminitis. […] Once enrolled, initiate the following steps: • 1. Initiate calcium HMB monohydrate, 2 g twice daily or HMB free acid (gel form), 1 g three times daily; • 2. Continue statin agent with no dose change; • 3. Repeat liver panel in 3 months and compare to baseline.

The test system of series [2] is statin-induced glucose intolerance. Kind of series: Treatment of statin-induced glucose intolerance using HMB. The series is classed as in vivo, human. The source says: Glucose intolerance with hyperglycemia/increased risk for diabetes, probably related to insulin resistance, has been reported in statin users, especially lipophilic statins such as […], less so in hydrophilic statins such as pravastatin. Here, HMB administration is used to treat statin-related glucose intolerance. Protocol: type 1, 1.5, and 2 diabetics with hemoglobin A1C at or exceeding 6.5% are eligible; also eligible are hyperglycemic/increased risk for diabetes patients not on diabetic treatment but with a hemoglobin A1C at or exceeding 5.7%; patients with critical value fasting blood glucose and hemoglobin A1C levels are excluded. Once enrolled, the following steps are initiated: • 1. Continue statin and diabetic medications with dosages unchanged; • 2. Initiate calcium HMB monohydrate, 2 g twice daily, or HMB free acid (gel form), 1 g three times daily; • 3. Repeat fasting blood glucose and hemoglobin A1C in 3 weeks and 6 weeks;

Series [3] concerns patients with statin-induced myopathy (SIM). It is filed as in vivo, human. The protocol:
A clinical study was conducted to evaluate the effects of HMB on patients with statin-induced myopathy (SIM). A total of eighteen patients were evaluated for the study with informed written consent obtained. Of the eighteen patients, fourteen (14) ultimately qualified as having true statin myalgia and were enrolled in the study. All patients enrolled were under the care of a board certified cardiologist.
A summary of the enrolled patients and their outcomes is as follows: • 1. All 14 had type 2a or mixed hyperlipidemia. • 2. All 14 had been treated with multiple statin agents, in each case withdrawing from the statin agent due to myalgia/myopathy. • 3. Of the 14 patients enrolled, 4 had elevated CPKs (creatine phosphokinase, a biomarker for myositis/rhabdomyolysis) secondary to SIM. • 4. Five of the 14 patients had undergone prior percutaneous coronary intervention with stents. • 5. One of the 14 patients had undergone prior coronary bypass surgery. • 6. Four of the 14 patients had angiographically documented moderate coronary artery disease not requiring percutaneous coronary intervention (PCI)/coronary bypass. • 7. Four of the 18 patients were disqualified due to the following: • Patient's leg myalgia was secondary to angiographically proven peripheral vascular disease, not SIM and symptoms were consistent with this diagnosis. • Patient's unilateral leg pain was secondary to neuropathy, not SIM. • Patient complained of GI upset on combined statin+3-hydroxy 3-methybutyrate and medication was discontinued. […] All 14 qualified patients remained on combination statin (in some cases with Zetia to achieve target) plus HMB therapy after the initial duration of the study. As noted, of those who had previously discontinued statin therapy, all had been tried on multiple statin agents without success. • 9. Follow up was conducted with all patients including out-patient visits and phone conversation. • 10.
The free acid form was used in one patient who experienced major CPK elevations (900-1000 IU/L range) and disabling myalgia on statins.
For this study, patients were evaluated using multiple laboratories with variable lab normal ranges, which are included. In the patient population as a whole, the full spectrum of SIM is presented, including statin myalgia […] CPK elevation (myositis or rhabdomyolysis depending on severity), elevation of CPK without myalgia, post-statin elevation of CPK with and without pain, post-statin myalgia without CPK elevation, and, finally, statin-induced muscle weakness without myalgia. Also represented were other statin-induced side effects such as short-term memory loss and glucose intolerance.

The test system of series [4] is statin-related cumulative trauma disorder. Kind of series: Treatment of statin-related cumulative trauma disorder using HMB. It is filed as in vivo, human. The settings on record: within 6 weeks of beginning HMB treatment. An excerpt:
Cumulative trauma disorder, also known as chronic overuse syndrome, is characterized by muscle damage due to performing repetitive activities over time. Statin users are particularly vulnerable to cumulative trauma disorder due to impaired ability to heal chronically micro-traumatized muscle. Here, HMB is used to treat cumulative trauma disorder. Protocol: Patients are enrolled if they qualify with symptoms that include chronic muscle weakness and pain complemented by an occupation or lifestyle lending itself to chronic overuse syndrome (e.g., construction workers, etc.). All patients are currently on statins. Initial documentation of strength levels and pain severity are required. Pain is evaluated using the Verbal Numerical Rating Scale (VNRS). Strength is measured using the Manual Muscle Testing/5-point scale. Additionally, grip strength is measured using a dynamometer. Once enrolled, the following steps are initiated: • 1. Obtain baseline lab including lipid panel and CPK-MM levels; • 2. Continue statin with dose unchanged; • 3. Continue repetitive activity in question at the same level of intensity; • 4. […]

Series [5] concerns statin-induced short-term memory loss. Nature of the series: Treatment of statin-induced short-term memory loss with HMB. The series is classed as in vivo, human. The settings on record: within two months of HMB treatment, statin continued. An excerpt: HMB administration is used to treat short-term memory loss, an unusual side effect resulting from statin administration. […] Protocol: Patient describes short term memory loss after starting statin. Initiate the following steps: • 1. Assess memory loss with standardized neuro-psychometric testing as baseline status; • 2. Initiate calcium HMB monohydrate, 2 g twice daily; or calcium free acid gel, 1 g three times daily; • 3. Continue statin therapy with no dose change; • 4. Obtain baseline lab (lipid panel, CPK, liver function/metabolic profile) and repeat in 12 weeks; • 5. Reassess memory status in 12 weeks repeating psycho-metric testing and comparing to baseline study.

The nature of series [6]: No Observed Adverse Effect Level (NOAEL) for HMB oral ingestion in rats. It is filed as in vivo. Here is the method:
This is an estimated human equivalent of 558 mg/kg and 665 mg/kg for men and women, respectively; assuming a body weight of 150 lbs equates to 38 g (males) and 45 g (females). […] Overall, standard doses of HMB appear to be well-tolerated over long periods of time.

The conditions of series [7]: cited from earlier work.
The subject of series [8] is rosuvastatin-induced myalgia and myopathy. Kind of series: Initial assessment of HMB reversal of statin myalgia (single volunteer). It is filed as in vivo, human. Here is the method: A healthy, fully informed and consenting adult volunteer with severe rosuvastatin-induced myalgia and myopathy and pre-statin LDL of 260 was administered 1 gram HMB three times a day (3 grams/day total) while rosuvastatin therapy was continued. Within 72 hours of the initial HMB administration, statin myalgia/myopathy fully subsided. During brief intervals where HMB treatment was discontinued (i.e., unintentionally skipped doses), the subject reported a return of myalgia, which again subsided upon reinstatement of HMB treatment.

The conditions of series [9]: cited from earlier work. This is another data set of the same source.

As to `CC(C)(O)CC(=O)O` [HMB, β-hydroxy β-methylbutyrate], in [1], the ALT/SGPT result is recorded as “less than 40 U/L” and the AST/SGOT result is given as “less than 40 U/L”. The fasting blood glucose entry in series [2] (diabetic patients, within 6 weeks) was “less than 130 mg %”. The “hemoglobin A1C” value in series [2] (diabetics, within 6 weeks of beginning HMB treatment) was “below 6.5%”. Besides, in series [2] (hyperglycemic/non-diabetic management patients, within 6 weeks), the fasting blood glucose entry is listed as “less than 100 mg %”. In addition, the “hemoglobin A1C” value in [2] (hyperglycemics on dietary management, within 6 weeks) is on record as under 5.7%. Also, in series [3] (Patient F-6, atorvastatin 40 mg + Zetia 10 mg + 2 g BID, 2-month follow-up), the “short term memory loss” value is on record as “mostly resolved”. For the same compound, the “response of SIM symptoms” value in series [3] (all 14 qualifying patients, combination statin plus HMB) is “complete resolution of SIM symptoms”. Besides, in series [3] (the disqualified patient with GI upset, after HMB treatment), the SIM-related myalgia result is “resolved completely”. For the same compound, in [4], the pain severity entry is reported as “reduced pain severity” and the strength levels result is recorded as “increased strength levels”. For the same compound, in [5], the short-term memory loss entry is “reversal of some or all short-term memory loss”. Further, the “human equivalent of NOAEL assuming a body weight of 150 lbs” value in series [6] (females) turned out to be 45 g. Moreover, the “human equivalent of NOAEL assuming a body weight of 150 lbs” value in series [6] (males) came to 38 g. In series [7] (in vivo), the half-life entry is “relatively short” and the “time to peak levels” value is “quickly”. For the same compound, the “area under blood level curve” value in [7] (when ingested with glucose) is reported as “reduced”. In [8] (1 gram HMB three times a day, rosuvastatin continued, one volunteer), the “time until statin myalgia/myopathy fully subsided” value is at most 72 h. In addition, the “benefit of increased HMB dosage” value in series [8] (increase to 6 grams/day) is “no additional benefit”. Besides, the “toxicological parameters in serum” value in [9] (3 g HMB daily for up to 8 weeks, youth and older persons) is reported as “failed to alter toxicological parameters in serum”. For the same compound, the “safety on long administration” value in series [9] (3 g daily, one year of administration) is on record as “safe”. In addition, the “toxic effects on serum parameters” value in [9] (approximately 6 g HMB daily (78 mg/kg) for one month, untrained young males subject to exercise) is “did not show any toxic effects”. In [9] (standard doses, long periods of time), the tolerability entry is reported as “well-tolerated”.
